Results: the NIST ThermoML archive (doi:10.1016/j.fluid.2012.08.024)

How the values were obtained:
[1] = mn = molality of the nth substance listed, in mol/kg; conditions: 298.15 K, 101 kPa, Liquid; for molar conductivity: Alternating current cell with electrodes; for mass density: Vibrating tube method
[2] = refractive index (Na D-line) (dimensionless); mn = molality of the nth substance listed, in mol/kg; conditions: 298.15 K, 101 kPa, Liquid, Standard Abbe refractometry

CCCCCCn1cc[n+](C)c1.[Br-] [3-hexyl-1-methyl-1H-imidazolium bromide] + O
[1]
Conditions | mass density [kg/m3] | molar conductivity [S·m2/mol]
m1 = 0.1017 | 1001.8 | –
m1 = 0.2038 | 1006.13 | –
m1 = 0.3005 | 1010.26 | –
m1 = 0.3716 | – | 0.01169
m1 = 0.4033 | 1014.58 | –
m1 = 0.9047 | – | 0.01149
m1 = 1.268 | – | 0.01134
m1 = 1.963 | – | 0.01117
m1 = 2.512 | – | 0.01099
m1 = 3.102 | – | 0.01085
m1 = 3.708 | – | 0.01072
m1 = 4.273 | – | 0.01055
m1 = 4.944 | – | 0.01044
m1 = 5.55 | – | 0.01034

O=C[C@H](O)[C@@H](O)[C@H](O)[C@H](O)CO [D-glucose] + O
Conditions | mass density, [1] [kg/m3] | refractive index, [2]
m1 = 0.0104 | 997.75 | 1.3328
m1 = 0.03 | 999.09 | 1.3334
m1 = 0.05 | 1000.45 | 1.3339
m1 = 0.0705 | 1001.83 | 1.3343
m1 = 0.0899 | 1003.13 | 1.3349
m1 = 0.1102 | 1004.48 | 1.3352
m1 = 0.1301 | – | 1.3357
m1 = 0.1496 | – | 1.3361
m1 = 0.1691 | – | 1.3366
